Experimental findings from patent US5043332A, “Novel 11β-substituted -19-nor-steriods” (priority 1981, dated 1991) are described below.

Where two headings read alike, the source gives them in different places.

In assay [1] the target is T1, Estrogen receptor of uterus of mice (Mus musculus, UniProt P19785).
T1 construct: the uterus were removed and homogenized at 0° C; from tissue; host or cells: mouse uterus, 105,000 g supernatant (immature females 18 to 21 days old)
T1 sequence (P19785 1-599): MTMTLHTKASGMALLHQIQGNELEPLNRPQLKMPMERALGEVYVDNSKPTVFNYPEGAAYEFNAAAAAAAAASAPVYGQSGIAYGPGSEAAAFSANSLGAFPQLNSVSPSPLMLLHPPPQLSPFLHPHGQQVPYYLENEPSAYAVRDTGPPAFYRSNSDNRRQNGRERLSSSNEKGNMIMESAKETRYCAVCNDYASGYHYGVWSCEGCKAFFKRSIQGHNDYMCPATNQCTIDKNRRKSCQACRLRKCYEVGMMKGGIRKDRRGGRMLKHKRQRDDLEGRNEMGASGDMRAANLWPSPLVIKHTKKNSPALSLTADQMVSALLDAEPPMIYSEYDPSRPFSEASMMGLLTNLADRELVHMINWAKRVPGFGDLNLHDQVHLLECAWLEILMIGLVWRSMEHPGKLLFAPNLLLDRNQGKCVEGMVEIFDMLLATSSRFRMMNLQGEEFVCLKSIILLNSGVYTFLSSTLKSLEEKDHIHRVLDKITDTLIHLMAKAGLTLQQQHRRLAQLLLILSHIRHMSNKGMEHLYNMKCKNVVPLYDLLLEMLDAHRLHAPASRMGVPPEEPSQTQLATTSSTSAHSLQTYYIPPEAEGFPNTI
Description: Estrogen receptor binding (displacement of tritiated estradiol). The method, then: E. Estrogen receptor of uterus of mice
Immature female mice 18 to 21 days old were killed and the uterus were removed and homogenized at 0° C. with a polytetrafluoroethylene-glass Potter in a buffered TS solution consisting of 10 mM, Tris, 0125M Saccharose, HCl for a pH of 7.4 at a rate of 1 g of tissue per 25 ml of TS. The homogenate was then ultracentrigued at 105,000 g for 90 minutes at 0° C. and aliquoits of the resulting […] were incubated at 0° C. for a time (t) with a constant concentration (T) of tritiated estradiol in the presence of increasing concentrations (0 to 1000×10^-9 M) of either cold estradiol or cold test compound. The concentration of tied tritiated estradiol (B) was measured for each incubate by the technique of adsorption on carbon-dextran.
(§1) The calculation of the relative affinity of […] (ARL) was identical for all of the above receptor tests. One traced the following two curves: the percentage of tied tritiated hormone B/T as a function of the logarithm of the cold hormone concentration and B/T as a function of the logarithm of the concentration of the cold test product. One determined the line of the equation. [formula]
(§2) The intersection of the I50 line and the curves permits one to determine the concentrations of the cold hormone of the reference (CH) and the cold test compound (CX) which inhibit by 50% the tieing of tritiated hormone with the receptor. The relative affinity of tieing (ARL) of the test product was determined by the equation: [formula]

For assay [2], the system named is thymocytes of surrenalectomized rats. As to the kind of experiment: Antiglucocorticoidal activity, incorporation of tritiated uridine in thymocytes. It is filed as cell-based. The note with it: for inhibition at 1 µM / inhibition at 0.1 µM / inhibition at 0.01 µM: Rattus norvegicus, Thymocyte; for inhibition at 0.1 µM: 5 × 10^-8 M dexamethasone + test product 10^-7 M; for inhibition at 0.01 µM: 5 × 10^-8 M dexamethasone + test product 10^-8 M; for opposition to the effect of dexamethasone on tritiated uridine incorporation (in words): with 5×10^-8 M dexamethasone.

The target of assay [3] is T2, Progestogen receptor of the uterus of rabbits (Oryctolagus cuniculus, UniProt P06186).
T2 construct: The uterus was removed, weighed and homogenized at 0° C; from tissue; host or cells: rabbit uterus, 105,000 g supernatant (estradiol-primed immature rabbits)
T2 sequence (P06186 1-930): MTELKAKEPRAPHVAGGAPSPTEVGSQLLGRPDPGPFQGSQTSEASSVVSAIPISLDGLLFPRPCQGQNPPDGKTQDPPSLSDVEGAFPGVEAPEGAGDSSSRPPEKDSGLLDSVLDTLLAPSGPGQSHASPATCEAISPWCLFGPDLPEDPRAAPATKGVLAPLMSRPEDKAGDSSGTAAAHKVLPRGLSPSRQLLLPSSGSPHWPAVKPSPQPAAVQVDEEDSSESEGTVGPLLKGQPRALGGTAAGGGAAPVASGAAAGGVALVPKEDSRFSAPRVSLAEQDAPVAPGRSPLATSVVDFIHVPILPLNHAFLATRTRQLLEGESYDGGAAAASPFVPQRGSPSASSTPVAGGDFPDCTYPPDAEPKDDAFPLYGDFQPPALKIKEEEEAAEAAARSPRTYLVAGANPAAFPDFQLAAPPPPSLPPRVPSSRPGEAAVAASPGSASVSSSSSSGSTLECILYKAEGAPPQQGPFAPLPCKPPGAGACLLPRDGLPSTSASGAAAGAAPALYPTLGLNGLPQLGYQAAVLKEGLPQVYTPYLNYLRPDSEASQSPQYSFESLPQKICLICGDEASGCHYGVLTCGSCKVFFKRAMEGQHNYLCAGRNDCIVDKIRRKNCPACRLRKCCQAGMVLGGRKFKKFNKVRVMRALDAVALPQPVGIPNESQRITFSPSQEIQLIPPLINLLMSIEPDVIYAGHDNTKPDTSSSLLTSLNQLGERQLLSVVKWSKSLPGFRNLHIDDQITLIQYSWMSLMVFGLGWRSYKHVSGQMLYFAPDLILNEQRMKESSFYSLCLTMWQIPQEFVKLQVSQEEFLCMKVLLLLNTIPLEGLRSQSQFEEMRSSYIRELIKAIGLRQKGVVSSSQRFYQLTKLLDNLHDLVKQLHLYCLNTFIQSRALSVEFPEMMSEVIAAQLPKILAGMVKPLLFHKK
Description: Progestogen receptor binding (displacement of tritiated product R). Set-up: species or system rabbit. The method, then:
C. Progestogen receptor of the uterus of rabbits
Immature rabbits weighing about 1 kg received a cutaneous application of 25 μg of estradiol and the animals were killed 5 days later. The uterus was removed, weighed and homogenized at 0° C. with a polytetrafluoroethylene-glass Potter, in a buffered TS solution [Tris 10. mM, 0.25M of saccharose, HCl-pH of 7.4] with 1 g of tissue per 50 ml of TS. […] The concentration of tied tritiated R (B) was then measured for each incubate by the technique of adsoprtion on carbon-dextran.
as §1, §2

Where [4] appears, read: read-out: % inhibition of effect of Dexamethasone.
[5] abbreviates: 5 × 10^-8 M dexamethasone + test product 10^-6 M.
Setting [6] is: second table, incubation 2 H at 0° C.
Where [7] appears, read: second table, 5 × 10^-8 M dexamethasone + test product 10^-6 M, read-out: % of inhibition of effect of Dexamethasone.
The mark [8] stands for this setting: second table, read-out: % of inhibition of effect of Dexamethasone.
Where [9] appears, read: second table, incubation 24 H at 0° C.

Take `CC#C[C@]1(O)CC[C@H]2[C@@H]3CCC4=CC(=O)[C@H](C)CC4=C3[C@@H](c3ccc(N(C)C)cc3)C[C@@]21C` [5 (2α), 2α-methyl-11β-(4-dimethylaminophenyl)-17α-(prop-1-ynyl)-Δ^4,9-estradiene-17β-ol-3-one]: the “relative affinity of tieing (ARL), Estrogen” value (from here on “relative affinity … Estrogen”) in assay [1] (incubation 2 H at 0° C.) and in assay [1] (incubation 5 H (25° C.)) was < 0,1 each time. Also, the inhibition at 1 µM in assay [2] (5 × 10^-8 M dexamethasone + test product 10^-6 M, read-out: % inhibition of effect of Dexamethasone) came to 100%. For the same compound, the inhibition at 0.1 µM in assay [2] (setting [4]) stood at 57%. Further, the inhibition at 0.01 µM in assay [2] (setting [4]) came out at 19%. For the same compound, the “relative affinity of tieing (ARL), Progestogen” value (shortened to “relative affinity … Progestogen”) in assay [3] (incubation 2 H at 0° C.) was found to be 40; in assay [3] (incubation 24 H at 0° C.) it was 39.
For `CC#C[C@]1(OC(C)=O)CC[C@H]2[C@@H]3CCc4cc(O)ccc4[C@H]3[C@@H](c3ccc(N(C)C)cc3)C[C@@]21C` [2 (17 OAc), 11β-(4-dimethylaminophenyl)-17α-(prop-1-ynyl)-17β-acetoxy-Δ^1,3,5(10) -estratriene-3-ol], the “relative affinity … Estrogen” value in assay [1] (incubation 2 H at 0° C.) is < 0,1; in assay [1] (incubation 5 H (25° C.)) it was 0,1. Further, in assay [2] (setting [5]), the “% inhibition of effect of Dexamethasone (symbol)” value (shortened to “% inhibition”) was “* (A dose of 10^-6 M inhibited the effect of dexamethasone totally)”. Besides, in assay [2] (setting [4]), the inhibition at 0.1 µM was 76%. For the same compound, the inhibition at 0.01 µM in assay [2] (setting [4]) was 24%. For the same compound, the “relative affinity … Progestogen” value is 5 in assay [3] (incubation 2 H at 0° C.) and 52 in assay [3] (incubation 24 H at 0° C.).
On to `CC#C[C@]1(O)CC[C@H]2[C@@H]3CCC4=CC(=O)[C@@H](C)CC4=C3[C@@H](c3ccc(N(C)C)cc3)C[C@@]21C` [5 (2β), 2-methyl-11β-(4-dimethylaminophenyl)-17α-(prop-1-ynyl)-Δ^4,9-estradiene-17β-ol-3-one], for which the “relative affinity … Estrogen” value in assay [1] (incubation 2 H at 0° C.) and in assay [1] (incubation 5 H (25° C.)) was < 0,1 each time. Moreover, the “% inhibition” value in assay [2] (setting [5]) is reported as “* (A dose of 10^-6 M inhibited the effect of dexamethasone totally)”. Further, the inhibition at 0.1 µM in assay [2] (setting [4]) amounted to 57%. Further, in assay [2] (setting [4]), the inhibition at 0.01 µM worked out at 10%. Also, the “relative affinity … Progestogen” value in assay [3] (incubation 2 H at 0° C.) and in assay [3] (incubation 24 H at 0° C.) was 44 in each case.
Regarding `C#C[C@@]1(O)CC[C@H]2[C@@H]3CCC4=CC(=O)CCC4=C3[C@@H](c3ccc(N(C)C)cc3)C[C@@]21C` [Example 21, 11β-[4-(N,N-dimethylamino)-phenyl]-17β-ethynyl-Δ^4,9-estradiene-17α-ol-3-one], in assay [1] (setting [6]), the “relative affinity … Estrogen” value is 0. For the same compound, the inhibition at 1 µM in assay [2] (setting [7]) amounted to 83%. Besides, in assay [2] (setting [8]), the inhibition at 0.1 µM was 15% and the inhibition at 0.01 µM came to 5%. The “opposition to the effect of dexamethasone on tritiated uridine incorporation (in words)” value (from here on “opposition to the effect”) in assay [2] is reported as “opposed this effect”. Besides, the “relative affinity … Progestogen” value in assay [3] (setting [6]) is listed as 10. In addition, in assay [3] (setting [9]), the “relative affinity … Progestogen” value is given as 4,3.
For `CC#C[C@]1(O)CC[C@H]2[C@@H]3CCC4=CC(=O)C(C)(C)CC4=C3[C@@H](c3ccc(N(C)C)cc3)C[C@@]21C` [Example 1, 2,2-dimethyl-11β-(4-dimethylaminophenyl)-17α-(prop-1-ynyl)-Δ^4,9-estradiene-17β-ol-3-one], the “relative affinity … Estrogen” value in assay [1] (incubation 2 H at 0° C.) and in assay [1] (incubation 5 H (25° C.)) was < 0,1 each time. For the same compound, the “% inhibition” value in assay [2] (setting [5]) is recorded as “* (A dose of 10^-6 M inhibited the effect of dexamethasone totally)”. Moreover, the inhibition at 0.1 µM in assay [2] (setting [4]) amounted to 18%. Further, the inhibition at 0.01 µM in assay [2] (setting [4]) is 8%. In addition, the “opposition to the effect” value in assay [2] is reported as “opposed this effect”. Moreover, the “relative affinity … Progestogen” value in assay [3] (incubation 2 H at 0° C.) and in assay [3] (incubation 24 H at 0° C.) was 4 each time.
In the case of `CN(C)c1ccc([C@H]2C[C@@]3(C)[C@@H](CC[C@@]3(O)C#CCl)[C@@H]3CCC4=CC(=O)CCC4=C32)cc1` [Example 25, 11β-[4-(N,N-dimethylamino)-phenyl]-21-chloro-19-nor-17α-Δ^4,9-pregnadiene-20-yne-17β-ol-3-one], the “relative affinity … Estrogen” value in assay [1] (setting [6]) came to 0. For the same compound, in assay [2] (setting [8]), the inhibition at 0.1 µM amounted to 85% and the inhibition at 0.01 µM was 57%. In addition, the “% of inhibition of effect of Dexamethasone (symbol)” value in assay [2] (second table, 5 × 10^-8 M dexamethasone + test product 10^-6 M) is reported as “* (A dose of 10^-6 M inhibited totally the effect of dexamethasone)”. Besides, the “opposition to the effect” value in assay [2] is reported as “opposed this effect”. For the same compound, in assay [3] (conclusion), the “affinity for progestogen receptors (in words)” value is on record as “very remarkable affinity”. Besides, the “relative affinity … Progestogen” value in assay [3] (setting [6]) was 78. The “relative affinity … Progestogen” value in assay [3] (setting [9]) turned out to be 467.
For the compound `C[C@]12C[C@H](c3ccc([N+](C)(C)[O-])cc3)C3=C4CCC(=O)C=C4CC[C@H]3[C@@H]1CC[C@@]2(O)C#CCl` [Example 26, N-oxide of 11β-[4-(N,N-dimethylamino)-phenyl]-21-chloro-19-nor-17α-Δ^4,9-pregnadiene-20-yne-17β-ol-3-one], the “relative affinity … Estrogen” value in assay [1] (setting [6]) is listed as 0. Further, the inhibition at 1 µM in assay [2] (setting [7]) came to 75%. In assay [2] (setting [8]), the inhibition at 0.1 µM was 34% and the inhibition at 0.01 µM was found to be 14%. Also, the “opposition to the effect” value in assay [2] is “opposed this effect”. In assay [3] (setting [6]), the “relative affinity … Progestogen” value was 6,3. Further, the “relative affinity … Progestogen” value in assay [3] (setting [9]) is recorded as 8,3.
